Measurements as given in US20240252506A1 (Hoffmann-La Roche Inc., priority 2021, published 2024).
In brackets after ≈: the same amount, converted by molar mass.

The molecules below were run on Escherichia coli ATCC 25922 (assay: Minimal Inhibitory Concentration (MIC) determination, broth microdilution (CLSI M07-A10)). Conditions: Escherichia coli, ATCC25922, strain Escherichia coli ATCC 25922, 18-24 hours at 35±2° C., lowest concentration for complete growth inhibition (no visible growth), read-out: Escherichia coli growth inhibition MIC.
Format: cell-based
In short: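 Broth microdilution per CLSI M07-A10; compounds in 2-fold serial dilutions; inoculum from 0.5 McFarland suspension diluted 1:200 in broth. Incubated 18-24 h at 35±2° C in ambient air; MIC (μg/mL) taken as lowest concentration giving no visible growth.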

Structure (SMILES)	MIC
CNCCNc1cnc2c(F)c3c(c(F)c2n1)CC(CN1CCC2(CC1)CN(c1cnc4c(n1)NC(=O)CO4)C(=O)O2)C3 (centres unmarked) [Example 40, 6-[8-[[5,9-difluoro-3-[2-(methylamino)ethylamino]-7,8-dihydro-6H-cyclopenta[g]quinoxalin-7-yl]methyl]-2-oxo-1-oxa-3,8-diazaspiro[4.5]decan-3-yl]-4H-pyrazino[2,3-b][1,4]oxazin-3-one]	0.5 µg/mL (≈ 0.839 µM)
NCCn1nc2c(F)c3c(c(F)c2n1)CC(CN1CCC2(CC1)CN(c1cnc4c(n1)NC(=O)CO4)C(=O)O2)C3 [Example 41, 6-[8-[[2-(2-aminoethyl)-4,8-difluoro-6,7-dihydro-5H-cyclopenta[f]benzotriazol-6-yl]methyl]-2-oxo-1-oxa-3,8-diazaspiro[4.5]decan-3-yl]-4H-pyrazino[2,3-b][1,4]oxazin-3-one]	≤ 0.06 µg/mL
NCCn1nnc2c(F)c3c(c(F)c21)CC(CN1CCC2(CC1)CN(c1cnc4c(n1)NC(=O)CO4)C(=O)O2)C3 (centres unmarked) [Example 42, 6-[8-[[1-(2-aminoethyl)-4,8-difluoro-6,7-dihydro-5H-cyclopenta[f]benzotriazol-6-yl]methyl]-2-oxo-1-oxa-3,8-diazaspiro[4.5]decan-3-yl]-4H-pyrazino[2,3-b][1,4]oxazin-3-one]	≤ 0.06 µg/mL
NCCn1c(=O)[nH]c2c(F)c3c(c(F)c21)CC(CN1CCC2(CC1)CN(c1cnc4c(n1)NC(=O)CO4)C(=O)O2)C3 (centres unmarked) [Example 44, 6-[8-[[1-(2-aminoethyl)-4,8-difluoro-2-oxo-3,5,6,7-tetrahydrocyclopenta[f]benzimidazol-6-yl]methyl]-2-oxo-1-oxa-3,8-diazaspiro[4.5]decan-3-yl]-4H-pyrazino[2,3-b][1,4]oxazin-3-one]	0.25 µg/mL (≈ 0.438 µM)
C[C@@H](N)c1nc2cc3c(c(F)c2[nH]1)CC(CN1CCC2(CC1)CN(c1cnc4c(n1)NC(=O)CO4)C(=O)O2)C3 (stereo partly drawn) [Example 45, 6-[8-[[2-[(1R)-1-aminoethyl]-8-fluoro-1,5,6,7-tetrahydrocyclopenta[f]benzimidazol-6-yl]methyl]-2-oxo-1-oxa-3,8-diazaspiro[4.5]decan-3-yl]-4H-pyrazino[2,3-b][1,4]oxazin-3-one]	0.125 µg/mL (≈ 0.233 µM)
O=C(O)C(F)(F)F.O=C1COc2ncc(N3CC4(CCN(CC5Cc6c(c(F)c7[nH]c([C@@H]8C[C@@H](O)CN8)nc7c6F)C5)CC4)OC3=O)nc2N1 [Example 46, 6-[8-[[4,8-Difluoro-2-[(2S,4R)-4-hydroxypyrrolidin-2-yl]-3,5,6,7-tetrahydrocyclopenta[f]benzimidazol-6-yl]methyl]-2-oxo-1-oxa-3,8-diazaspiro[4.5]decan-3-yl]-4H-pyrazino[2,3-b][1,4]oxazin-3-one;2,2,2-trifluoroacetic acid]	0.25 µg/mL
O=C(O)C(F)(F)F.O=C1COc2ncc(N3CC(CCNCC4Cc5c(c(F)c6[nH]c([C@@H]7C[C@@H](O)CN7)nc6c5F)C4)OC3=O)nc2N1 (stereo partly drawn) [Example 47, 6-[5-[2-[[4,8-difluoro-2-[(2S,4R)-4-hydroxypyrrolidin-2-yl]-3,5,6,7-tetrahydrocyclopenta[f]benzimidazol-6-yl]methylamino]ethyl]-2-oxo-oxazolidin-3-yl]-4H-pyrazino[2,3-b][1,4]oxazin-3-one; 2,2,2-trifluoroacetic acid]	2 µg/mL
O=C(O)C(F)(F)F.O=C1COc2ncc(N3CC4(CCN(CC5Cc6cc7[nH]c([C@@H]8C[C@@H](O)CN8)nc7c(F)c6C5)CC4)OC3=O)nc2N1 (stereo partly drawn) [Example 48, 6-[8-[[8-fluoro-2-[(2S,4R)-4-hydroxypyrrolidin-2-yl]-3,5,6,7-tetrahydrocyclopenta[f]benzimidazol-6-yl]methyl]-2-oxo-1-oxa-3,8-diazaspiro[4.5]decan-3-yl]-4H-pyrazino[2,3-b][1,4]oxazin-3-one; 2,2,2-trifluoroacetic acid]	0.25 µg/mL
O=C(O)C(F)(F)F.O=C1COc2ncc(N3CC4(CCN(CC5Cc6c(c(F)c7[nH]c([C@H]8C[C@@H](O)CN8)nc7c6F)C5)CC4)OC3=O)nc2N1 [Example 50, 6-[8-[[4,8-difluoro-2-[(2R,4R)-4-hydroxypyrrolidin-2-yl]-3,5,6,7-tetrahydrocyclopenta[f]benzimidazol-6-yl]methyl]-2-oxo-1-oxa-3,8-diazaspiro[4.5]decan-3-yl]-4H-pyrazino[2,3-b][1,4]oxazin-3-one; 2,2,2-trifluoroacetic acid]	0.25 µg/mL
O=C(O)C(F)(F)F.O=C1COc2ncc(N3CC4(CCN(CC5Cc6c(c(F)c7[nH]c([C@@H]8C[C@H](O)CN8)nc7c6F)C5)CC4)OC3=O)nc2N1 [Example 52, 6-[8-[[4,8-difluoro-2-[(2S,4S)-4-hydroxypyrrolidin-2-yl]-3,5,6,7-tetrahydrocyclopenta[f]benzimidazol-6-yl]methyl]-2-oxo-1-oxa-3,8-diazaspiro[4.5]decan-3-yl]-4H-pyrazino[2,3-b][1,4]oxazin-3-one; 2,2,2-trifluoroacetic acid]	0.5 µg/mL
O=C1COc2ncc(N3CC4(CC(NCC5Cc6c(c(F)c7[nH]c([C@H]8C[C@@H](O)CN8)nc7c6F)C5)C4)OC3=O)nc2N1 (stereo partly drawn) [Example 53, 6-[2-[[4,8-difluoro-2-[(2R,4R)-4-hydroxypyrrolidin-2-yl]-3,5,6,7-tetrahydrocyclopenta[f]benzimidazol-6-yl]methylamino]-6-oxo-5-oxa-7-azaspiro[3.4]octan-7-yl]-4H-pyrazino[2,3-b][1,4]oxazin-3-one]	4 µg/mL (≈ 6.87 µM)
O=C(O)C(F)(F)F.O=C1COc2ncc(N3CC4(CCN(CC5Cc6c(c(F)c7[nH]c([C@H]8NCC[C@@H]8O)nc7c6F)C5)CC4)OC3=O)nc2N1 [Example 54, 6-[8-[[4,8-difluoro-2-[(2R,3S)-3-hydroxypyrrolidin-2-yl]-3,5,6,7-tetrahydrocyclopenta[f]benzimidazol-6-yl]methyl]-2-oxo-1-oxa-3,8-diazaspiro[4.5]decan-3-yl]-4H-pyrazino[2,3-b][1,4]oxazin-3-one; 2,2,2-trifluoroacetic acid]	0.125 µg/mL
Cn1c([C@@H]2C[C@@H](O)CN2)nc2c(F)c3c(c(F)c21)CC(CN1CCC2(CC1)CN(c1cnc4c(n1)NC(=O)CO4)C(=O)O2)C3.O=C(O)C(F)(F)F (stereo partly drawn) [Example 55, 6-[8-[[4,8-difluoro-2-[(2S,4R)-4-hydroxypyrrolidin-2-yl]-1-methyl-6,7-dihydro-5H-cyclopenta[f]benzimidazol-6-yl]methyl]-2-oxo-1-oxa-3,8-diazaspiro[4.5]decan-3-yl]-4H-pyrazino[2,3-b][1,4]oxazin-3-one; 2,2,2-trifluoroacetic acid]	0.25 µg/mL
CN[C@H](CO)Cc1nc2c(F)c3c(c(F)c2[nH]1)CC(CN1CCC2(CC1)CN(c1cnc4c(n1)NC(=O)CO4)C(=O)O2)C3 [Example 57, 6-[8-[[4,8-difluoro-2-[(2S)-3-hydroxy-2-(methylamino)propyl]-3,5,6,7-tetrahydrocyclopenta[f]benzimidazol-6-yl]methyl]-2-oxo-1-oxa-3,8-diazaspiro[4.5]decan-3-yl]-4H-pyrazino[2,3-b][1,4]oxazin-3-one]	0.5 µg/mL (≈ 0.835 µM)

Continued by falling MIC, values first:

MIC	Structure (SMILES)
2 µg/mL	NCCn1c(=O)n(CCN)c2c(F)c3c(c(F)c21)CC(CN1CCC2(CC1)CN(c1cnc4c(n1)NC(=O)CO4)C(=O)O2)C3.O=C(O)C(F)(F)F [Example 43, 6-[8-[[1,3-bis(2-aminoethyl)-4,8-difluoro-2-oxo-6,7-dihydro-5H-cyclopenta[f]benzimidazol-6-yl]methyl]-2-oxo-1-oxa-3,8-diazaspiro[4.5]decan-3-yl]-4H-pyrazino[2,3-b][1,4]oxazin-3-one; 2,2,2-trifluoroacetic acid]
0.5 µg/mL (≈ 0.928 µM)	Nc1cnc2c(F)c3c(c(F)c2n1)CC(CN1CCC2(CC1)CN(c1cnc4c(n1)NC(=O)CO4)C(=O)O2)C3 (centres unmarked) [Example 39, 6-[8-[(3-amino-5,9-difluoro-7,8-dihydro-6H-cyclopenta[g]quinoxalin-7-yl)methyl]-2-oxo-1-oxa-3,8-diazaspiro[4.5]decan-3-yl]-4H-pyrazino[2,3-b][1,4]oxazin-3-one]
0.25 µg/mL (≈ 0.409 µM)	CO[C@@H]1CN[C@@H](c2nc3c(F)c4c(c(F)c3[nH]2)CC(CN2CCC3(CC2)CN(c2cnc5c(n2)NC(=O)CO5)C(=O)O3)C4)C1 [Example 37, 6-[8-[[4,8-difluoro-2-[(2R,4S)-4-methoxypyrrolidin-2-yl]-3,5,6,7-tetrahydrocyclopenta[f]benzimidazol-6-yl]methyl]-2-oxo-1-oxa-3,8-diazaspiro[4.5]decan-3-yl]-4H-pyrazino[2,3-b][1,4]oxazin-3-one]
0.25 µg/mL	O=C(O)C(F)(F)F.O=C1COc2ncc(N3CC4(CCN(CC5Cc6c(c(F)c7[nH]c([C@H]8C[C@H](O)CN8)nc7c6F)C5)CC4)OC3=O)nc2N1 [Example 49, 6-[8-[[4,8-difluoro-2-[(2R,4S)-4-hydroxypyrrolidin-2-yl]-3,5,6,7-tetrahydrocyclopenta[f]benzimidazol-6-yl]methyl]-2-oxo-1-oxa-3,8-diazaspiro[4.5]decan-3-yl]-4H-pyrazino[2,3-b][1,4]oxazin-3-one; 2,2,2-trifluoroacetic acid]
0.25 µg/mL	CN[C@H](CO)c1nc2c(F)c3c(c(F)c2[nH]1)CC(CN1CCC2(CC1)CN(c1cnc4c(n1)NC(=O)CO4)C(=O)O2)C3.O=C(O)C(F)(F)F [Example 56, 6-[8-[[4,8-difluoro-2-[(1S)-2-hydroxy-1-(methylamino)ethyl]-3,5,6,7-tetrahydrocyclopenta[f]benzimidaozl-6-yl]methyl]-2-oxo-1-oxa-3,8-diazaspiro[4.5]decan-3-yl]-4H-pyrazino[2,3-b][1,4]oxazin-3-one; 2,2,2-trifluoroacetic acid]
0.125 µg/mL (≈ 0.22 µM)	CN[C@@H](C)c1nc2c(F)c3c(c(F)c2[nH]1)CC(CN1CCC2(CC1)CN(c1cnc4c(n1)NC(=O)CO4)C(=O)O2)C3 [Example 38, 6-[8-[[4,8-difluoro-2-[(1S)-1-(methylamino)ethyl]-3,5,6,7-tetrahydrocyclopenta[f]benzimidazol-6-yl]methyl]-2-oxo-1-oxa-3,8-diazaspiro[4.5]decan-3-yl]-4H-pyrazino[2,3-b][1,4]oxazin-3-one]
